# Measurements as given in US7659283B2, “Pyrrolo [3,2-C] pyridines useful as inhibitors of protein kinases” (Vertex Pharmaceuticals Incorporated, priority 2006, dated 2010).
# Tests used:
# human Src kinase = human Src kinase (Homo sapiens, UniProt P12931); experiment: Src Inhibition Assay: Spectrophotometric Assay; type: biochemical; conditions: 25 nM Src, 100 μM ATP, 30° C., coupled NADH spectrophotometric assay; read-out: Ki (inhibit Src)
# Description: The compounds are evaluated as inhibitors of human Src kinase using a spectrophotometric assay.
# Src Inhibition Assay: Spectrophotometric Assay
# An assay buffer solution was prepared which consisted of 25 mM HEPES (pH 7.5), 10 mM MgCl2, 250 μM NADH, 3 mM phosphoenolpyruvate, 60 μg/mL pyruvate kinase, 21 μg/mL lactate dehydrogenase, 113 μM ATP and 28 nM Src. To 60 μL of this solution, in a 96 well plate, was added 2 μL of test compound stock solution in DMSO and the mixture allowed to equilibrate for 10 mins at 30° C. The enzyme reaction was initiated by the addition of 5 μL 10 mg/mL poly Glu, Tyr (4:1) prepared in 25 mM HEPES (pH 7.5). Final assay concentrations of Src and ATP were 25 nM and 100 μM respectively. Initial rate data was determined from the rate of change of absorbance at 340 nm (corresponding to stoichiometric consumption of NADH) using a Molecular Devices Spectramax plate reader (Sunnyvale, Calif.) over 10 mins at 30° C. For each Ki determination 8 data points covering the test compound concentration range of 0-7.5 μM were obtained in duplicate. Ki values were calculated from initial rate data by non-linear regression using the Prism software package (Prism 4.0a, Graphpad Software, San Diego, Calif.).
# human Lck kinase = human Lck kinase (Homo sapiens, UniProt P06239); experiment: Lck Inhibition Assay: Spectrophotometric Assay; type: biochemical; conditions: 60 nM Lck, 500 μM ATP, 30° C., coupled NADH spectrophotometric assay; read-out: Ki (inhibit Lck)
# Description: The compounds are evaluated as inhibitors of human Lck kinase using a spectrophotometric assay.
# Lck Inhibition Assay: Spectrophotometric Assay
# An assay buffer solution was prepared which consisted of 25 mM HEPES (pH 7.5), 10 mM MgCl2, 250 μM NADH, 3 mM phosphoenolpyruvate, 43 μg/mL pyruvate kinase, 14 μg/mL lactate dehydrogenase, 560 μM ATP and 67 nM Lck. To 60 μL of this solution, in a 96 well plate, was added 2 μL of test compound stock solution in DMSO and the mixture allowed to equilibrate for 10 minutes at 30° C. The enzyme reaction was initiated by the addition of 5 μL 15 mg/mL poly Glu, Tyr (4:1) prepared in 25 mM HEPES (pH 7.5). Final assay concentrations of Lck and ATP are 60 nM and 500 μM respectively. Initial rate data was determined from the rate of change of absorbance at 340 nm (corresponding to stoichiometric consumption of NADH) using a Molecular Devices Spectramax plate reader (Sunnyvale, Calif.) over 10 min at 30° C. For each Ki determination 8 data points covering the test compound compound concentration range of 0-7.5 μM are obtained in duplicate. Ki values are calculated from initial rate data by non-linear regression using the Prism software package (Prism 4.0a, Graphpad Software, San Diego, Calif.).
# Chain of human Src kinase (P12931 whole entry): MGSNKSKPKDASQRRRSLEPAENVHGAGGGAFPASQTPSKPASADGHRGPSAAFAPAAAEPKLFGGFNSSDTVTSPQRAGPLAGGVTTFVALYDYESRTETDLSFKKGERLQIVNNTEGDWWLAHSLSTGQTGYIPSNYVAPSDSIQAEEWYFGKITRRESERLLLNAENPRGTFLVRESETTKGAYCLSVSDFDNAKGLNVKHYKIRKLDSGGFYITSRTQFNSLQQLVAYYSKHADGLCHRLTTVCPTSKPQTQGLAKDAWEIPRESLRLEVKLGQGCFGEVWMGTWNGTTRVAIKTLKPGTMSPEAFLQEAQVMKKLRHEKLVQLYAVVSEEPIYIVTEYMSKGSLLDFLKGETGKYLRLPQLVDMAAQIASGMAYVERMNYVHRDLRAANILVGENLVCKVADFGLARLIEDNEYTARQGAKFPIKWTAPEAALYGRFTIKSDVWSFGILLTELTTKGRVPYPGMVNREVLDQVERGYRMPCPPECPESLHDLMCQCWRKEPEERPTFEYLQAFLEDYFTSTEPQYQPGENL
# Chain of human Lck kinase (P06239 whole entry): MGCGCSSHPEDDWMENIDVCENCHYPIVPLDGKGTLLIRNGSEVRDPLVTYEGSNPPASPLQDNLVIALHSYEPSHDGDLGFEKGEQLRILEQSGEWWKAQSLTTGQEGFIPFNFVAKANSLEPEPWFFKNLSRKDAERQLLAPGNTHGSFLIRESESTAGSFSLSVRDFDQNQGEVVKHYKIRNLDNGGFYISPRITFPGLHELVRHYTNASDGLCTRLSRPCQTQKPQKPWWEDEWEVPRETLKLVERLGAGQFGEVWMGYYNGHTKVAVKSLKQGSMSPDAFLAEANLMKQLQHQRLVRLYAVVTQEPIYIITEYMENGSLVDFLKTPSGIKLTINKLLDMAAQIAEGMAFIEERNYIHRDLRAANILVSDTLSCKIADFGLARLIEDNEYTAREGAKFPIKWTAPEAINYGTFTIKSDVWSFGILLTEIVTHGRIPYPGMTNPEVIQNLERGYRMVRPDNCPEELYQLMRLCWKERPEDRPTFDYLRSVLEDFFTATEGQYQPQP
structure (smiles),measurement,setting,value
"Nc1nccc2c1c(-c1ccc(Oc3ccccc3)cc1)cn2C1CCCC1 [Compound I-1, 1-Cyclopentyl-3-(4-phenoxyphenyl)-1H-pyrrolo[3,2-c]pyridin-4-amine]",Ki,human Src kinase,< 1 µM
same,Ki,human Lck kinase,< 1 µM
